Values joined by “and” are separate entries in the source; they are usually repeats but may differ in a detail not shown here. Equal values may be shown once. “Also recorded” adds a separate entry of the source.
Legend:
[1] = Reaction rates with 2-formylpyridine measured by HPLC-ICP-MS (Method A); type: physicochemical; details: Method a: 2-formylpyridine 1000 μM, probe 25 μM, pH 7.40 PBS
Description: Quantitative Measurement of Reaction Rates with Aldehydes: Method A: Reaction Rates of Compounds with 2-Formylpyridine Measured by HPLC-ICP-MS
Reactivity of aldehyde-binding probes were assessed in pH 7.40 phosphate-buffered saline under pseudo-first order conditions with 2-formylpyridine concentration of 1000 μM and probes at 25 μM. Concentrations of unreacted starting material and condensation products were determined at 12 min time intervals based on their relative integrations. The values were fit to a standard first order rate constant linear equation and the rate constant was extracted from the slope.

[2] = test system: fibrotic lung tissue of bleomycin-injured mice; assay: Biodistribution study for selectivity of allysine-reactive Gd probes (Gd:Eu ratio by ICP-MS); type: in vivo, mouse; details: 30 minutes after injection, 100 nmol/g, Eu-DOTA co-injected, n = 5
Description: C57Bl/6 adult male mice at 8 weeks of age (Jackson Laboratories, Barr Harbor, ME) received a single intratracheal dose of bleomycin, 1 units/kg body weight (50 μL total volume) (Fresenius Kabi, Lake Zurich, Il) as previously described in Desogere, P., et al. Optimization of a Collagen-Targeted PET Probe for Molecular Imaging of Pulmonary Fibrosis. J Nuc Med 58, 1991-1996 (2017).
Imaging and Biodistribution Study for Selectivity of Allysine-Reactive Probes In Vivo:
Bleomycin-injured mice at 14 days after injury were sedated and then injected with Compound 19, Compound 20, Gd-CHyd (Akam, E. A., et al. Improving the reactivity of hydrazine-bearing MRI probes for in vivo imaging of lung fibrogenesis. Chemical Science 11, 224-231 (2020)) formulated to contain an equal concentration of Eu-DOTA as a non-binding control probe. […] Each sample was analyzed by ICP-MS for gadolinium and europium content, and the lungs were also assessed for hydroxyproline content. […] All animals were dosed via tail vein injection at 100 nmol/g body weight from 30 mM solutions of gadolinium probes with 30 mM Eu-DOTA as determined by ICP-MS. […] Animals were euthanized 90 min post injection and their organs and tissues were harvested and counted using a gamma counter. […] The animals were euthanized 90 min post injection and their organs and tissues were counted using a gamma counter. […]

[3] = Reaction rates with butyraldehyde measured by HPLC-ICP-MS (Method B); type: physicochemical; details: Method b: butyraldehyde 100 μM, probe 25 μM, pH 7.40
Description: Method B: Reaction Rates of Compounds with Butyraldehyde Measured by HPLC-ICP-MS
The reactions were conducted in pH 7.40 phosphate-buffered with butyraldehyde concentration of 100 μM and hydrazine probes at 25 μM. Concentrations of unreacted starting material and condensation products were determined at 10 min time intervals over 2 hours based on their relative integrations. The values were fit to a standard first order rate constant linear equation and the rate constant was extracted from the slope.
Reaction with Butyraldehyde Monitored by HPLC-ICP-MS
Reactions were conducted in pH 7.4 phosphate-buffered saline with butyraldehyde concentration of 100 μM and hydrazine probes at 25 μM. Concentrations of unreacted starting material and condensation products were determined based on their relative integrations at 12 min time intervals over 2 hours.

[4] = Relaxivity measurements in PBS; type: physicochemical; details: 1.4 T, 37° C.
Description: (§1) BSA-ALD (10 mg/mL) or BSA (10 mg/mL) were treated for 24 hours at 37° C. with the corresponding Gd or Mn complex at a range of concentrations (0.01-0.2 mM), with a total volume of 300 μL maintained for all samples. After 24 hours, an aliquot of the solution (50 μL) was used for longitudinal (T1) relaxation measurements, recorded using a Bruker mq60 Minispec at 1.41 T and 37° C. Longitudinal (T1) relaxation times were measured via an inversion recovery experiment using 10 inversions of duration ranging between 0.05×T1 and 10×T1. Solutions (concentration range: 0.1 mM-1.0 mM) in PBS were run in parallel. To measure the relaxivity of BSA-bound species, sodium cyanoborohydride (10 mg) was added to the solution to irreversibly bind the probe to the protein. After a further 2h incubation at 37° C., protein-bound and protein-free solutions were separated by ultrafiltration. Then 200 μL PBS was added to the residue to dissolve the protein. Longitudinal (T1) relaxation times for the bounded species were measured using a Bruker mq60 Minispec at 1.41 T and 37° C. After the measurement, concentration of corresponding metal ion (Gd/Mn) in the residue and filter were both determined using an Agilent 8800 ICP-MS system. Relaxivity (r1) was determined from the slope of a plot of 1/T1 vs metal concentration for 5 concentrations.

[5] = biological target: bovine serum albumin (BSA) (Bos taurus, UniProt P02769); assay: Relaxivity measurements with BSA; type: binding; details: 1.4 T, 37° C., BSA 10 mg/mL
Chain of bovine serum albumin (BSA) (P02769 25-607): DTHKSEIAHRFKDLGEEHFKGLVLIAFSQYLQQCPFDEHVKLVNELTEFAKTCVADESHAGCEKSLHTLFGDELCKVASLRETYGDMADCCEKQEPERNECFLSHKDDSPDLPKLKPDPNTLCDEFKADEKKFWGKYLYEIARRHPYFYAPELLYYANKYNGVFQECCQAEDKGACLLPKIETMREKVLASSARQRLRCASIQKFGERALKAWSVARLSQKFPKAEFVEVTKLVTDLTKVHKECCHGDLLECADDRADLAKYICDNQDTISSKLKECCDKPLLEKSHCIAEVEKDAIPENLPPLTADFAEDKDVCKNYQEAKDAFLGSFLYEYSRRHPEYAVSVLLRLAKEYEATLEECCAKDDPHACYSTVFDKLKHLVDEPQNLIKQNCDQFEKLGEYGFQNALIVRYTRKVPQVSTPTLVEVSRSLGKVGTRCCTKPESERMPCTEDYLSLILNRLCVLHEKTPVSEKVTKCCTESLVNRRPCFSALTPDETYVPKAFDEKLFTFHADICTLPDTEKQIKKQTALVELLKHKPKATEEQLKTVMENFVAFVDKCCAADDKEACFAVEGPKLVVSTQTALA
Description: as §1

[6] = biological target: T1, BSA-ALD (oxidized bovine serum albumin containing allysine aldehyde groups) (Bos taurus, UniProt P02769); assay: Relaxivity measurements with BSA-Ald; type: binding
T1 construct: made in house; host or cells: no expression host: BSA oxidised chemically with sodium ascorbate, ferric chloride and H2O2, then desalted on PD-10
T1 sequence (P02769 25-607): as above
Description: Preparation of Allysine Containing Bovine Serum Albumin, BSA-ALD:
To a solution of bovine serum albumin (BSA) (100 mg) dissolved in phosphate buffered saline (4 mL, pH 7.4, 0.25 mM), sodium ascorbate (20 mg), ferric chloride (120 μL, 10 mM) and 20 μL H2O2 (30% w) were added. The reaction was stirred at 37° C. for 24 hours, and sodium ascorbate (20 mg) was added repeatedly every 8 hours. After the reaction, protein was purified using PD-10 Sephadex G25 desalting columns (GE Healthcare), eluted with PBS. Protein concentration was assessed using the ‘BCA Protein Assay Kit’ (Thermo Scientific). Protein carbonyl concentration was determined by ‘Protein Carbonyl Content Assay Kit’ (Sigmal-Aldrich).
Alternatively, preparation of BSA^Ald and binding of Gd^3+ probe to protein was carried out according to modified procedures. To a solution of bovine serum albumin (BSA) (100 mg) dissolved in phosphate buffered saline (4 mL, pH 7.4, 0.25 mM) was added sodium ascorbate (20 mg), ferric chloride (120 μL, 10 mM) and 20 μL H2O2 (30% w). The reaction was stirred at 37° C. for 24 h, and sodium ascorbate (20 mg) was added repeatedly every 8 h. After 24 h, the protein was purified using PD-10 Sephadex G25 desalting columns (GE Healthcare), eluted with PBS. Protein concentration was assessed using the ‘Micro BCA Protein Assay Kit’ (Thermo Scientific, 23235). Protein carbonyl concentration was determined by ‘Protein Carbonyl Content Assay Kit’ (Sigma-Aldrich, MAK094-1KT). […] The protein solutions were kept at a concentration of 20 mg/mL for further use.
as §1

[7] = test system: liver of CCl4 injured mice; type: in vivo, mouse; details: CCl4 injured mice
Description: CCl4 Liver Fibrosis Model:
Male C57BL/6 mice (Charles River Laboratories, Wilmington, MA) were treated with carbon tetrachloride for 12 weeks (0.1 ml of 20% CCl4 in olive oil the first week, 30% the second week, and 40% from weeks 3-12) by oral gavage, 2-3 times per week. Control mice were fed vehicle (olive oil) only.
A total of 53 C57BL/6 mice were included to study CCl4 induced hepatic fibrosis: • A. CCl4 for 12 weeks (n=20). Each mouse was imaged with probe 1 and then imaged again 24 hours later with probe 2. Probe 1 and Probe 2 were randomly chosen from GdDOTA, GdCHyd, Mn-12, Gd-9 and Gd-10. • B. Vehicle treated control (n=20). Each mouse was imaged with probe 1 and then imaged again 24 hours later with probe 2. Probe 1 and Probe 2 were randomly chosen from GdDOTA, Mn-12, GdCHyd, Gd-9, Gd-10. • C. CCl4 for 12 weeks (n=3, another 3 pair-wise comparison have been done in group A). Each mouse was imaged with probe 1 and then imaged again 24 hours later with probe 2. […] Each mouse was imaged with probe 1 and then imaged again 24 hours later with probe 2. Probe 1 and Probe 2 were randomly choosing from Gd-9 and Gd-10. • E. CCl4 for 12 weeks (n=3). Each mouse was imaged with Gd-9. After 24 hours, the same mouse was first injected with 1000 μmol/kg of Yb-9 and then injected with 100 μmol/kg of Gd-9 15 min after the Yb-9 injection.
Animals were anesthetized with isoflurane (1-2%) and placed in a specially designed cradle with body temperature maintained at 37° C. The inhaled isoflurane level was adjusted to maintain a respiration rate of 60±5 breaths per minute. The tail vein was cannulated for intravenous (i.v.) delivery of the contrast agent while the animal was positioned in the scanner. Imaging was performed at 4.7 T using a small bore animal scanner with a custom-built volume coil. Mice were imaged with a dose of 100 μmol/kg from 30 mM stock solution of Gd or Mn complex.
For mice liver imaging, a series of baseline images (3D T1 weighted fast low angle shot magnetic resonance imaging (FLASH)) were first acquired (repetition time/echo time=15/2 ms; flip angle, 30°; field of view, 48×30 mm^2; matrix size, […]; slice thickness, 0.25 mm; acquisition time, 3 minutes 20 seconds), then a bolus of Gd or Mn complex was administered i.v. and imaging performed for a period of 45 min p.i. with the repetition acquisition of 3D T1 weighted FLASH sequences. Following the imaging session, animals were sacrificed (75 min p.i.) and liver tissue was subjected to histopathologic analysis.
For liver imaging analysis, a region of interest (ROI) was manually traced encompassing the liver parenchyma while avoiding major blood vessels. A second ROI was placed on the dorsal muscle visible in the same image slice to quantify the signal intensity in the muscle for comparison. Seven ROIs were placed in the field of view without any tissue (air) to measure the variation in background signal. More than 20 axial slices per mouse across the entire liver were analyzed in this fashion. […] Contrast to noise ratio (CNR) was calculated by measuring the difference in signal intensity (SI) between liver and muscle and normalizing to the standard deviation of the signal in the air, eq 21. ΔCNR was calculated by subtracting CNR measured prior to probe injection (CNRPre) from CNR measured after injection (CNRPost), eq 22. […]

[8] = H2^17O transverse relaxivity vs temperature (inner-sphere water number q); type: physicochemical; details: temperature dependence of H2^17O transverse relaxivity
Excerpt: FIG. 24. […] The peak relaxivity is indicative of the number of inner-sphere water molecules (q).
(§2) To meet these requirements, the probes Mn-12, Mn-13 and Mn-14 were designed based on the stable Mn-1,4-DO2A chelate. […] This combination of stability, turn-on relaxivity, and low uptake in healthy liver indicate that Mn-12 is quite promising as a novel probe for liver fibrogenesis detection.

[9] = Transmetalation experiment with Zn^2+ monitored by relaxivity; type: physicochemical; details: 1 mM complex, 25 mM Zn^2+, 50 mM pH 6.0 MES buffer, 37° C., 1.4 T
[10] = Biodistribution of manganese in healthy mice 60 minutes post-injection; type: in vivo, mouse; details: 0.1 mmol/kg i.v.
Excerpt: as §2

SMILES | k (second order rate constant) [1] [M⁻¹ s⁻¹] | Gd:Eu ratio, Left lung [2] | Gd:Eu ratio, Right lung [2] | k (second order rate constant) [3] [M⁻¹ s⁻¹] | r1, PBS [4] [mM⁻¹ s⁻¹] | r1, +BSA [5] [mM⁻¹ s⁻¹] | turn-on in relaxivity upon binding to allysine (BSA-Ald bound vs unbound) [6] | r1, +BSA-Ald ([6]; 1.4 T, 37° C., BSA-Ald 10 mg/mL) [mM⁻¹ s⁻¹] | r1, Bound to BSA-Ald ([6]; 1.4 T, 37° C., protein-bound species after NaBH3CN and ultrafiltration) [mM⁻¹ s⁻¹] | liver enhancement ([7]; 45 min p.i.) | ΔCNR (liver to muscle) ([7]; 45 min post injection, 100 μmol/kg i.v., group mean) | inner-sphere number of water molecule (q) [8] | kinetic inertness to Mn^2+ release [9] | Mn liver levels in healthy mice [10]
NOCC(=O)NCCN(CCNC(=O)CCC1C(=O)[O][Gd]23[O]C(=O)CN4CCN(CCN1CCN(CC4)CC(=O)[O]2)CC(=O)[O]3)CCNC(=O)CON (centres unmarked) [Compound 19] | 0.55 | 1.4 ± 0.1 | 1.3 ± 0.2 |  |  |  |  |  |  |  |  |  |  | 
NN1CCN(C(=O)CCCN2CCN(CCCC(=O)N3CCN(N)CC3)CCN(CC(=O)[O-])CCN(CC(=O)[O-])CC2)CC1.[Mn+2] [Mn-12] |  |  |  | 4.5 | 1.6 | 2.2 | 4 fold and ~5 fold | 4.5 | 7.7 | strong signal enhancement | 1.5 ± 0.8 | 0.44 | more inert to Mn^2+ release than Mn-1,4-DO2A; also recorded: increased kinetic stability of Mn-12 compared to unmodified Mn-1,4-DO2A | little accumulation in the healthy liver; also recorded: baseline Mn levels in liver

Source: US20240285808A1, “MOLECULAR PROBES FOR IN VIVO DETECTION OF ALDEHYDES” (The General Hospital Corporation, priority 2021, published 2024)
